Assay in all cases: Radiometric protein kinase assay (33PanQinase), Assay Condition A (thiol containing)
Format in all cases: biochemical

The target in assay [1] is CDK12 wt/CycK (Homo sapiens (Human), UniProt Q9NYV4). The note with it: thiol containing (1.2 mM DTT), ATP 0.3 μM. As to the method: (§1) The IC50 profile of test compounds was determined using three protein kinases.
(§2) The compounds were provided as pre-weighed powders in vials. The compounds were dissolved to 1×10^−02M by adding DMSO. 100 μl of each of the resulting stock solutions were transferred into column 2 of four 96 well “master plates”.
(§3) Prior to testing, the 1×10^−02M stock solutions in column 2 of the master plates were subjected to a serial, semi-logarithmic dilution using 100% DMSO as a solvent. […] Column 1 and 7 were filled with 100% DMSO as controls. Subsequently, 2×10 μl from each well of the serial diluted copy plates were aliquoted with a 96 channel pipettor into two identical sets of “compound dilution plates”.
(§4) In the process, 90 μl H2O were added to each well of a set of compound dilution plates. To minimize potential precipitation, the H2O was added to each plate only a few minutes before the transfer of the compound solutions into the assay plates. Each plate was shaken thoroughly, resulting in a “compound dilution plate/10% DMSO”.
(§5) For the assays, 5 μl solution from each well of the compound dilution plates/10% DMSO were transferred into the assay plates. The final volume of the assay was 50 μl. All compounds were tested at 10 final assay concentrations in the range from 1×10^−04M to 3×10^−09M, in singlicate. The final DMSO concentration in the reaction cocktails was 1% in all cases.
(§6) All protein kinases were expressed in Sf9 insect cells or in E. coli as recombinant GST-fusion proteins or His-tagged proteins, either as full-length or enzymatically active fragments. All kinases were produced from human cDNAs and purified by either GSH-affinity chromatography or immobilized metal. Affinity tags were removed from a number of kinases during purification. The purity of the protein kinases was examined by SDS-PAGE/Coomassie staining, the identity was checked by mass spectroscopy.
(§7) A radiometric protein kinase assay (^33PanQinase® Activity Assay) was used for measuring the kinase activity of the three protein kinases. All kinase assays were performed in 96-well FlashPlates™ from PerkinElmer (Boston, Mass., USA) in a 50 μl reaction volume. The reaction cocktail was pipetted in four steps in the following order: • 20 μl of assay buffer (standard buffer) • 5 μl of ATP solution (in H2O) • 5 μl of test compound (in 10% DMSO) • 20 μl enzyme/substrate mix
(§8) The reaction cocktails were incubated at 30° C. for 60 minutes. The reaction was stopped with 50 μl of 2% (v/v) H3PO4, plates were aspirated and washed two times with 200 μl 0.9% (w/v) NaCl. Incorporation of ^33Pi was determined with a microplate scintillation counter (Microbeta, Wallac). All assays were performed with a BeckmanCoulter/SAGIAN™ Core System.
(§9) The median value of the counts in column 1 (n=8) of each assay plate was defined as “low control”. This value reflects unspecific binding of radioactivity to the plate in the absence of a protein kinase but in the presence of the substrate. The median value of the counts in column 7 of each assay plate (n=8) was taken as the “high control”, i.e. full activity in the absence of any inhibitor. The difference between high and low control was taken as 100% activity.
(§10) As part of the data evaluation the low control value from a particular plate was subtracted from the high control value as well as from all 80 “compound values” of the corresponding plate. The residual activity (in %) for each well of a particular plate was calculated by using the following formula: Res. Activity (%)=100×[(cpm of compound−low control)/(high control−low control)]
(§11) The residual activities for each concentration and the compound IC50 values were calculated using Quattro Workflow V3.1.1 (Quattro Research GmbH, Munich, Germany). […] The fitting method used was a least-squares fit.

Assay [2] deals with CDK2/CycA2 (Homo sapiens (Human), UniProt P24941). The note with it: thiol containing (1.2 mM DTT), ATP 0.3 μM. As to the method:
as §1, §2, §3, §4, §5, §6, §7, §8, §9, §10, §11

Assay [3] concerns the target CDK7/CycH/MAT1 (Homo sapiens (Human), UniProt P50613). The note with it: thiol containing (1.2 mM DTT), ATP 3.0 μM. As for the experimental part: as §1, §2, §3, §4, §5, §6, §7, §8, §9, §10, §11

Where only a bound is given, the exact number is not on record here.

The IC50 is the concentration that inhibits the measured activity by half. Lower therefore signals higher potency.

Sequence of CDK12 wt/CycK (Q9NYV4 whole entry): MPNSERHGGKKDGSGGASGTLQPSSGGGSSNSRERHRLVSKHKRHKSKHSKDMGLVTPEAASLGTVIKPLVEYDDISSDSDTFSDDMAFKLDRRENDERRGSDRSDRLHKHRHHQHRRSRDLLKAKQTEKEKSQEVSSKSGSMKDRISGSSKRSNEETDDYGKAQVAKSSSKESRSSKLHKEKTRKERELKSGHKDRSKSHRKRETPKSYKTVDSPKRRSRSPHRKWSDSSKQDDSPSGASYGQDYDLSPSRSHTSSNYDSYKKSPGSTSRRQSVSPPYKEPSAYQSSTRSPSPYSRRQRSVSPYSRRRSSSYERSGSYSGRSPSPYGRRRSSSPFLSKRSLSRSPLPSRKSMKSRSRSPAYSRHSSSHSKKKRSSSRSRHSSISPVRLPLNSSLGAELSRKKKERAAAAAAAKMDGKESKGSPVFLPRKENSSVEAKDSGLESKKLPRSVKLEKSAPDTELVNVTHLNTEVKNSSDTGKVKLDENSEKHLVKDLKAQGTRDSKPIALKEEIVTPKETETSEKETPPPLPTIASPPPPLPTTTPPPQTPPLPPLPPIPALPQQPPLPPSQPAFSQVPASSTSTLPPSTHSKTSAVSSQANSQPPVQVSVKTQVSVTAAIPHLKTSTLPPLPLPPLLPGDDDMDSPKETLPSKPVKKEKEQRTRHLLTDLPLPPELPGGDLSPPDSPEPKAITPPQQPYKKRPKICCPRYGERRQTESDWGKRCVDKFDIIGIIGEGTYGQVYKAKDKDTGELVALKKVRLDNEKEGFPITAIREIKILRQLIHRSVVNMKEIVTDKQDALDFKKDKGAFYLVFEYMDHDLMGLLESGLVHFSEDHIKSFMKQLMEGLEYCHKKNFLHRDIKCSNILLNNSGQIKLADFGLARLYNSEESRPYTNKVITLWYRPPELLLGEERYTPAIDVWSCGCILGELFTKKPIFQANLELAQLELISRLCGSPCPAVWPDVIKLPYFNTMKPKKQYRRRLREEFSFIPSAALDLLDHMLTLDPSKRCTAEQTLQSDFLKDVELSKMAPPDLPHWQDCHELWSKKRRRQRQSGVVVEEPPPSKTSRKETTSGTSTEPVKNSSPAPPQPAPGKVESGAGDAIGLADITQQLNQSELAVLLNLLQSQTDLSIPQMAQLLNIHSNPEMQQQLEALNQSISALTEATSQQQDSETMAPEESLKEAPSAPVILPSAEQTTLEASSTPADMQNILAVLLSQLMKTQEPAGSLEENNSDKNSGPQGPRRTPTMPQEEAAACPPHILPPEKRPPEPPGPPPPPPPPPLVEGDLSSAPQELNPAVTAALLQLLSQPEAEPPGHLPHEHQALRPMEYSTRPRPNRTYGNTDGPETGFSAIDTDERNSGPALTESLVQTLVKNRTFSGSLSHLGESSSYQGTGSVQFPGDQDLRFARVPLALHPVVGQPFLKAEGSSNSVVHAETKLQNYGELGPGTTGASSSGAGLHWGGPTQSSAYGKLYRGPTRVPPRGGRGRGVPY
Sequence of CDK12 wt/CycK (O75909 whole entry partner): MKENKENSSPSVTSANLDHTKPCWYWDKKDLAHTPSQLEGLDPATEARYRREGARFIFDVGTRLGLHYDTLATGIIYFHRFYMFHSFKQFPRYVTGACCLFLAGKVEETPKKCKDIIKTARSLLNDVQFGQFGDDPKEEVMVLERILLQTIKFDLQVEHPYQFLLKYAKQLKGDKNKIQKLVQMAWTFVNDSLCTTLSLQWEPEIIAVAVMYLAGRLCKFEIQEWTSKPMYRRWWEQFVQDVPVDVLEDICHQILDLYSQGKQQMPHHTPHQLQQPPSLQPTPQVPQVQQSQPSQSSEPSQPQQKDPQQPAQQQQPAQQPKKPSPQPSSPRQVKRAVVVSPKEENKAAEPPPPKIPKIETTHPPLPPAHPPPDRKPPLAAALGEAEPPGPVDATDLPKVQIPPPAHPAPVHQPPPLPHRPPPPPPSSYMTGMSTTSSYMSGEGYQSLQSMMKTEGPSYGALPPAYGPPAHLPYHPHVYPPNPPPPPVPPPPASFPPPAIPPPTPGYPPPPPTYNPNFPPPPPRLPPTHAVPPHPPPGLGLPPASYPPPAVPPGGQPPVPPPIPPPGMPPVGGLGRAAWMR
Sequence of CDK7/CycH/MAT1 (P50613 whole entry): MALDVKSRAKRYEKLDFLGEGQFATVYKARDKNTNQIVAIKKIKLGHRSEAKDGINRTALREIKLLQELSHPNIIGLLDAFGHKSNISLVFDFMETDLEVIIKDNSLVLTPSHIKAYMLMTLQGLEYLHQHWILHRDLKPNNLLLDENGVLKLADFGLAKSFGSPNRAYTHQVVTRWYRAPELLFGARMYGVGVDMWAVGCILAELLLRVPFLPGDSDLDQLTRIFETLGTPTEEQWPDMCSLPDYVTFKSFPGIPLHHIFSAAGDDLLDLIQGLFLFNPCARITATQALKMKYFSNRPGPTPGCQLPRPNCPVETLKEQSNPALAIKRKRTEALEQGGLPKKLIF
Sequence of CDK7/CycH/MAT1 (P51946 whole entry partner): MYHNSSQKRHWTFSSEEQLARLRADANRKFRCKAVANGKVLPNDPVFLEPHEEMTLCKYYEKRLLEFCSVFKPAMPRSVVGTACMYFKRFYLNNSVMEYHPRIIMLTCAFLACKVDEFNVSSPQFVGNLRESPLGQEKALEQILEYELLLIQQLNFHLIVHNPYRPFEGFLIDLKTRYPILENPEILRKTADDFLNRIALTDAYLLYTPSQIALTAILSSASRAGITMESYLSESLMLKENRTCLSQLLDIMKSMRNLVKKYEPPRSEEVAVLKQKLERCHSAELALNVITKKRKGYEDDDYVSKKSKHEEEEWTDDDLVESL
Sequence of CDK7/CycH/MAT1 (P51948 whole entry partner): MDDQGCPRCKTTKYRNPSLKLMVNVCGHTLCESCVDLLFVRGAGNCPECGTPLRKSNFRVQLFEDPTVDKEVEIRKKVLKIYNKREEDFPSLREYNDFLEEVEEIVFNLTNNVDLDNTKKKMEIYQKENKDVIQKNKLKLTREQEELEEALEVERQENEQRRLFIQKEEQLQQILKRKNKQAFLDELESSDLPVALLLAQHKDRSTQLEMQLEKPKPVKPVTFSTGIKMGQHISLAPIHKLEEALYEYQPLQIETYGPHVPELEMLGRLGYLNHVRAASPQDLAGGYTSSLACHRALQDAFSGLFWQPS

As for `C=CC(=O)Nc1ccc(C(=O)N2CC[C@@H](Nc3ncc4ccc(Cl)cc4n3)C2)cc1` [Example 36, (R)—N-(4-(3-((7-chloroquinazolin-2-yl)amino)pyrrolidine-1-carbonyl)phenyl)acrylamide], the 50% inhibitory concentration (IC50) was in the range of 0.1 to 1 µM in assay [1], 0.1 to 1 µM in assay [2] and 1 to 10 µM in assay [3].
With `C=CC(=O)Nc1ccc(C(=O)N2CC[C@@H](Nc3ncc4ccccc4n3)C2)c(C)c1` [Example 78], the IC50 in assay [1] is 0.1 to 1 µM; in assay [2] it was 1 to 10 µM; in assay [3] it was 1 to 10 µM.
As for `C=CC(=O)Nc1ccc(C(=O)N2CCC[C@@H](Nc3ncc4ccc(C)cc4n3)C2)cc1` [Example 9, (R)-N-(4-(3-((7-methylquinazolin-2-yl)amino)piperidine-1-carbonyl)phenyl)acrylamide], the IC50 in assay [1] was 10 to 30 µM; in assay [2], 30 to 100 µM; in assay [3], 30 to 100 µM.
For `C=CC(=O)Nc1ccc(C(=O)N2CC[C@@H](Nc3ncc4ccc(S(C)(=O)=O)cc4n3)C2)cc1C` [Example 93, (R)—N-(2-methyl-4-(3-((7-(methylsulfonyl)quinazolin-2-yl)amino)pyrrolidine-1-carbonyl)phenyl)acrylamide], the figures for the IC50 in assay [1], in assay [2] and in assay [3] were ≤ 0.1 µM, 0.1 to 1 µM and 1 to 10 µM, respectively.
For `C=C(CC)C(=O)Nc1ccc(C(=O)N2CC[C@@H](Nc3ncc4ccccc4n3)C2)cc1` [Example 94, (R)-2-methylene-N-(4-(3-(quinazolin-2-ylamino)pyrrolidine-1-carbonyl)phenyl)butanamide] the same measures were 0.1 to 1 µM, 1 to 10 µM and 1 to 10 µM.
On the same counts, the results for `CCC(=O)Nc1ccc(C(=O)N2CCC[C@@H](Nc3ncc4ccc(S(C)(=O)=O)cc4n3)C2)cc1` [Example 21, (R)-N-(4-(3-((7-(methylsulfonyl)quinazolin-2-yl)amino)piperidine-1-carbonyl)phenyl)propionamide] are 10 to 30 µM, 10 to 30 µM and 30 to 100 µM.
For `COc1cc(C(=O)N2CC[C@@H](Nc3ncc4ccccc4n3)C2)ccc1NC(=O)/C=C/CN(C)C` [Example 81, (R,E)-4-(dimethylamino)-N-(2-methoxy-4-(3-(quinazolin-2-ylamino)pyrrolidine-1-carbonyl)phenyl)but-2-enamide] the same measures were 0.1 to 1 µM, 1 to 10 µM and 0.1 to 1 µM.
In the case of `CCC(=O)Nc1ccc(C(=O)N2CCC[C@@H](Nc3ncc4ccc(OC)cc4n3)C2)cc1` [Example 20, (R)-N-(4-(3-((7-methoxyquinazolin-2-yl)amino)piperidine-1-carbonyl)phenyl)propionamide], the IC50 in assay [1], in assay [2] and in assay [3] was 30 to 100 µM in each case.
With `CCC(=O)Nc1ccc(C(=O)N2CCC[C@@H](Nc3ncc4ccccc4n3)C2)cc1` [Example 17, (R)-N-(4-(3-(quinazolin-2-ylamino)piperidine-1-carbonyl)phenyl)propionamide], the half-maximal inhibitory concentration (IC50) in assay [1], in assay [2] and in assay [3] was 30 to 100 µM throughout.
Consider `C=CC(=O)Nc1ccc(C(=O)N2CCC[C@@H](Nc3ncc4ccc(F)cc4n3)C2)cc1` [Example 5, (R)-N-(4-(3-((7-fluoroquinazolin-2-yl)amino)piperidine-1-carbonyl)phenyl)acrylamide], for which the IC50 in assay [1] was 1 to 10 µM; in assay [2], 30 to 100 µM; in assay [3] it was 30 to 100 µM.
In the case of `CCC(=O)Nc1ccc(C(=O)N2CC[C@@H](Nc3ncc4ccc(C#N)cc4n3)C2)cc1` [Example 55, (R)—N-(4-(3-((7-cyanoquinazolin-2-yl)amino)pyrrolidine-1-carbonyl)phenyl)propionamide], the IC50 in assay [1] was 0.1 to 1 µM; in assay [2], 0.1 to 1 µM; in assay [3], 1 to 10 µM.
`C=CC(=O)Nc1ccc(C(=O)N2CCC[C@@H](Nc3cc4ccccc4cn3)C2)cc1` [Example 2, (R)-N-(4-(3-(isoquinolin-3-ylamino)piperidine-1-carbonyl)phenyl)acrylamide]: the 50% inhibitory concentration (IC50) in assay [1] lay within 1 to 10 µM; in assay [2], 30 to 100 µM; in assay [3], 30 to 100 µM.
As to `CN(C)C/C=C/C(=O)Nc1ccc(C(=O)N2CCC[C@@H](Nc3ncc4ccccc4n3)C2)cc1` [Example 66, (R,E)-4-(dimethylamino)-N-(4-(3-(quinazolin-2-ylamino)piperidine-1-carbonyl)phenyl)but-2-enamide], the half-maximal inhibitory concentration (IC50) in assay [1] was 1 to 10 µM; in assay [2], 30 to 100 µM; in assay [3] it was 30 to 100 µM.
Take `C=CC(=O)Nc1ccc(C(=O)N2CC[C@@H](Nc3ncc4ccc(C)cc4n3)C2)cc1` [Example 32, (R)-N-(4-(3-((7-methylquinazolin-2-yl)amino)pyrrolidine-1-carbonyl)phenyl)acrylamide]: the IC50 is ≤ 0.1 µM in assay [1], 0.1 to 1 µM in assay [2] and 1 to 10 µM in assay [3].
For `C=CC(=O)Nc1ccc(C(=O)N2C[C@H](Nc3ncc4ccccc4n3)[C@@H](F)C2)cc1` [Example 63, N-(4-((3S,4S)-3-fluoro-4-(quinazolin-2-ylamino)pyrrolidine-1-carbonyl)phenyl)acrylamide] the same measures were 0.1 to 1 µM, 10 to 30 µM and 1 to 10 µM.
On the same counts, the results for `C=CC(=O)Nc1ccc(C(=O)N2CC[C@@H](Nc3ncc4ccc(C(N)=O)cc4n3)C2)cc1` [Example 39, (R)-2-((1-(4-acrylamidobenzoyl)pyrrolidin-3-yl)amino)quinazoline-7-carboxamide] are ≤ 0.1 µM, ≤ 0.1 µM and 0.1 to 1 µM.
For `CCC(=O)Nc1ccc(C(=O)N2CC[C@@H](Nc3ncc4ccc(F)cc4n3)C2)cc1` [Example 54, (R)—N-(4-(3-((7-fluoroquinazolin-2-yl)amino)pyrrolidine-1-carbonyl)phenyl)propionamide] the same measures were 0.1 to 1 µM, 1 to 10 µM and 1 to 10 µM.
On to `CCC(=O)Nc1ccc(C(=O)N2CCC[C@@H](Nc3ncc4ccc(F)cc4n3)C2)cc1` [Example 23, (R)-N-(4-(3-((7-fluoroquinazolin-2-yl)amino)piperidine-1-carbonyl)phenyl)propionamide], for which the 50% inhibitory concentration (IC50) in assay [1], in assay [2] and in assay [3] was 30 to 100 µM in each case.
For the compound `C=CC(=O)Nc1ccc(C(=O)N2CCC[C@@H](Nc3ncc4ccc(Cl)cc4n3)C2)cc1` [Example 10, (R)-N-(4-(3-((7-chloroquinazolin-2-yl)amino)piperidine-1-carbonyl)phenyl)acrylamide], the IC50 lay within 1 to 10 µM in assay [1], 30 to 100 µM in assay [2] and 30 to 100 µM in assay [3].
Turning to `CCC(=O)Nc1ccc(C(=O)N2CC[C@@H](Nc3ncc4ccncc4n3)C2)cc1` [Example 50, (R)—N-(4-(3-(pyrido[3,4-d]pyrimidin-2-ylamino)pyrrolidine-1-carbonyl)phenyl)propionamide], the IC50 was in the range of 0.1 to 1 µM in assay [1], 1 to 10 µM in assay [2] and 1 to 10 µM in assay [3].
`C=CC(=O)Nc1ccc(C(=O)N2CC[C@@H](Nc3ncc4ccc(F)cc4n3)C2)cc1` [Example 35, (R)—N-(4-(3-((7-fluoroquinazolin-2-yl)amino)pyrrolidine-1-carbonyl)phenyl)acrylamide]: the values for the half-maximal inhibitory concentration (IC50) in assay [1], in assay [2] and in assay [3] were ≤ 0.1 µM, 1 to 10 µM and 1 to 10 µM, respectively.

(Values after US11447493B2 (Kinnate Biopharma Inc., priority 2018, dated 2022).)
